Assay results published in publication PMC5218480 (PLoS ONE, 2017).

System: MV-4-11 cells
Assay: Gene expression microarray analysis (Affymetrix PrimeView) and GSEA
Type: cell-based, human
Design: RFU PODN (11730768_x_at) / Fold change /veh PODN (11730768_x_at) / RFU LINC00158 (11744669_a_at) / Fold change /veh LINC00158 (11744669_a_at) / RFU DUSP10 (11751237_a_at) / Fold change /veh DUSP10 (11751237_a_at) / RFU ID3 (11757404_x_at) / Fold change /veh ID3 (11757404_x_at) / RFU PLEKHG5 (11737974_s_at) / Fold change /veh PLEKHG5 (11737974_s_at) / RFU LRRC4B (11730491_at) / Fold change /veh LRRC4B (11730491_at) / RFU GIMAP4 (11747438_a_at) / Fold change /veh GIMAP4 (11747438_a_at) / RFU KRT8 (11758183_x_at) / Fold change /veh KRT8 (11758183_x_at) / RFU CNN1 (11734310_a_at) / Fold change /veh CNN1 (11734310_a_at) / RFU VPS37D (11726825_at) / Fold change /veh VPS37D (11726825_at) / RFU C10orf10 (11716522_x_at) / Fold change /veh C10orf10 (11716522_x_at) / RFU KIR2DL2 /// KIR2DL4 /// KIR2DL5A /// KIR2DL5B /// KIR2DS1 /// KIR2DS2 /// KIR2DS3 /// KIR2DS4 /// KIR3DL3 /// KIR3DL3 /// KIR3DS1 (11738374_at) / Fold change /veh KIR2DL2 /// KIR2DL4 /// KIR2DL5A /// KIR2DL5B /// KIR2DS1 /// KIR2DS2 /// KIR2DS3 /// KIR2DS4 /// KIR3DL3 /// KIR3DL3 /// KIR3DS1 (11738374_at) / RFU C1QL1 (11718748_at) / Fold change /veh C1QL1 (11718748_at) / RFU TMPRSS4 (11747572_a_at) / Fold change /veh TMPRSS4 (11747572_a_at) / RFU HAMP (11756126_x_at) / Fold change /veh HAMP (11756126_x_at) / RFU RNFT2 (11725882_a_at) / Fold change /veh RNFT2 (11725882_a_at) / RFU NR4A2 (11747474_a_at) / Fold change /veh NR4A2 (11747474_a_at) / RFU ABCC12 (11746883_a_at) / Fold change /veh ABCC12 (11746883_a_at) / RFU TMEM136 (11760407_x_at) / Fold change /veh TMEM136 (11760407_x_at) / RFU CLDN22 /// WWC2 (11732394_at) / Fold change /veh CLDN22 /// WWC2 (11732394_at) / RFU HLA-DPB1 (11760878_x_at) / Fold change /veh HLA-DPB1 (11760878_x_at) / RFU SPINT1 (11716480_a_at) / Fold change /veh SPINT1 (11716480_a_at) / RFU GAP43 (11754022_s_at) / Fold change /veh GAP43 (11754022_s_at) / RFU A4GNT (11735810_at) / Fold change /veh A4GNT (11735810_at) / RFU PRB3 (11715151_x_at) / Fold change /veh PRB3 (11715151_x_at) / RFU TUBB4B (11761932_at) / Fold change /veh TUBB4B (11761932_at) / RFU CAPN14 (11732068_a_at) / Fold change /veh CAPN14 (11732068_a_at) / RFU TMCC2 (11721928_a_at) / Fold change /veh TMCC2 (11721928_a_at) / RFU IRGQ (11745062_a_at) / Fold change /veh IRGQ (11745062_a_at) / RFU FAM174B (11720279_a_at) / Fold change /veh FAM174B (11720279_a_at) / RFU TMPRSS4 (11748680_a_at) / Fold change /veh TMPRSS4 (11748680_a_at) / RFU FAM212B (11763350_a_at) / Fold change /veh FAM212B (11763350_a_at) / RFU PLEKHG5 (11743358_a_at) / Fold change /veh PLEKHG5 (11743358_a_at) / RFU ZSCAN30 (11745921_a_at) / Fold change /veh ZSCAN30 (11745921_a_at) / RFU CMKLR1 (11741424_a_at) / Fold change /veh CMKLR1 (11741424_a_at) / RFU LOC101060620 /// MAPK8IP1 (11723275_at) / Fold change /veh LOC101060620 /// MAPK8IP1 (11723275_at) / RFU SPTSSB (11747773_x_at) / Fold change /veh SPTSSB (11747773_x_at) / RFU PRSS12 (11739890_at) / Fold change /veh PRSS12 (11739890_at) / RFU BIN1 (11741810_x_at) / Fold change /veh BIN1 (11741810_x_at) / RFU WNT11 (11732464_a_at) / Fold change /veh WNT11 (11732464_a_at) / RFU C10orf10 (11716521_a_at) / Fold change /veh C10orf10 (11716521_a_at) / RFU C5orf56 (11738089_at) / Fold change /veh C5orf56 (11738089_at) / RFU CYB561 (11721691_x_at) / Fold change /veh CYB561 (11721691_x_at) / RFU ANKRD19P (11752326_a_at) / Fold change /veh ANKRD19P (11752326_a_at) / RFU OR2T12 /// OR2T33 /// OR2T8 (11738714_s_at) / Fold change /veh OR2T12 /// OR2T33 /// OR2T8 (11738714_s_at) / RFU VCAN (11748164_a_at) / Fold change /veh VCAN (11748164_a_at) / RFU JSRP1 (11732532_at) / Fold change /veh JSRP1 (11732532_at) / RFU KRTAP10-11 (11738290_x_at) / Fold change /veh KRTAP10-11 (11738290_x_at) / RFU MYO3A (11730013_a_at) / Fold change /veh MYO3A (11730013_a_at) / RFU EBF3 (11725865_a_at) / Fold change /veh EBF3 (11725865_a_at) / RFU CAMK2N1 (11719241_x_at) / Fold change /veh CAMK2N1 (11719241_x_at) / RFU C5orf56 (11738088_a_at) / Fold change /veh C5orf56 (11738088_a_at) / RFU OLFML3 (11715873_a_at) / Fold change /veh OLFML3 (11715873_a_at) / RFU LOC100653217 /// NTM (11731650_a_at) / Fold change /veh LOC100653217 /// NTM (11731650_a_at) / RFU MAPK11 (11762145_a_at) / Fold change /veh MAPK11 (11762145_a_at) / RFU FIZ1 (11724087_x_at) / Fold change /veh FIZ1 (11724087_x_at) / RFU OASL (11726364_x_at) / Fold change /veh OASL (11726364_x_at) / RFU SOX15 (11748057_x_at) / Fold change /veh SOX15 (11748057_x_at) / RFU CD79A (11719716_a_at) / Fold change /veh CD79A (11719716_a_at) / RFU HIST1H1D (11736915_at) / Fold change /veh HIST1H1D (11736915_at) / RFU CASKIN2 (11723855_a_at) / Fold change /veh CASKIN2 (11723855_a_at) / RFU LOC730098 (11760151_x_at) / Fold change /veh LOC730098 (11760151_x_at) / RFU OR4N2 (11742367_at) / Fold change /veh OR4N2 (11742367_at) / RFU PRRT2 (11749266_a_at) / Fold change /veh PRRT2 (11749266_a_at) / RFU SNX32 (11753110_a_at) / Fold change /veh SNX32 (11753110_a_at) / RFU CDHR5 (11726645_a_at) / Fold change /veh CDHR5 (11726645_a_at) / RFU RCAN1 (11760418_a_at) / Fold change /veh RCAN1 (11760418_a_at) / RFU FAM167A (11723789_a_at) / Fold change /veh FAM167A (11723789_a_at) / RFU FAM26E (11764081_at) / Fold change /veh FAM26E (11764081_at) / RFU ISYNA1 (11749810_s_at) / Fold change /veh ISYNA1 (11749810_s_at) / RFU ACY1 (11761880_at) / Fold change /veh ACY1 (11761880_at) / RFU 11764098_at / Fold change /veh 11764098_at / RFU SAMD14 (11745864_x_at) / Fold change /veh SAMD14 (11745864_x_at) / RFU NPB (11741838_a_at) / Fold change /veh NPB (11741838_a_at) / RFU TMPRSS6 (11731388_a_at) / Fold change /veh TMPRSS6 (11731388_a_at) / RFU KRTAP10-2 (11738614_at) / Fold change /veh KRTAP10-2 (11738614_at) / RFU ARHGAP8 /// PRR5-ARHGAP8 (11727945_x_at) / Fold change /veh ARHGAP8 /// PRR5-ARHGAP8 (11727945_x_at) / RFU KRTAP5-7 /// NADSYN1 (11734609_at) / Fold change /veh KRTAP5-7 /// NADSYN1 (11734609_at) / RFU RASL12 (11751679_a_at) / Fold change /veh RASL12 (11751679_a_at) / RFU CDKN2B (11736163_a_at) / Fold change /veh CDKN2B (11736163_a_at) / RFU PRF1 (11729649_at) / Fold change /veh PRF1 (11729649_at) / RFU, ZNF638 /// ZNF638-IT1 / Fold change vs veh, ZNF638 /// ZNF638-IT1 / RFU, PANK3 / Fold change vs veh, PANK3 / RFU, SH3YL1 / Fold change vs veh, SH3YL1 / RFU, ZEB2 / Fold change vs veh, ZEB2 / RFU, NRIP1 / Fold change vs veh, NRIP1 / RFU, PTTG1IP / Fold change vs veh, PTTG1IP / RFU, CAPN2 / Fold change vs veh, CAPN2 / RFU, MED14 / Fold change vs veh, MED14 / RFU, SNORA58 / Fold change vs veh, SNORA58 / RFU, C1orf63 / Fold change vs veh, C1orf63 / RFU, LRRFIP1 / Fold change vs veh, LRRFIP1 / RFU, NDUFAF7 / Fold change vs veh, NDUFAF7 / RFU, SLC12A2 / Fold change vs veh, SLC12A2 / RFU, IBTK / Fold change vs veh, IBTK / RFU, ESF1 / Fold change vs veh, ESF1 / Fold change vs veh, TMEM50B / RFU, TAOK1 / Fold change vs veh, TAOK1 / RFU, ACBD3 / Fold change vs veh, ACBD3 / RFU, TMA16 / Fold change vs veh, TMA16 / RFU, RWDD3 / Fold change vs veh, RWDD3 / RFU, BCAT1 / Fold change vs veh, BCAT1 / RFU, EDEM3 / Fold change vs veh, EDEM3 / RFU, TMEM33 / Fold change vs veh, TMEM33 / RFU, WDR75 / Fold change vs veh, WDR75 / RFU, AHCTF1 / Fold change vs veh, AHCTF1 / RFU, TFRC / Fold change vs veh, TFRC / RFU, ZDHHC17 / Fold change vs veh, ZDHHC17 / RFU, NOM1 / Fold change vs veh, NOM1 / RFU, ARL8B / Fold change vs veh, ARL8B / RFU, ZBTB11 / Fold change vs veh, ZBTB11 / RFU, TAMM41 / Fold change vs veh, TAMM41 / RFU, KIAA1704 /// LOC100996395 / Fold change vs veh, KIAA1704 /// LOC100996395 / RFU, ING1 / Fold change vs veh, ING1 / RFU, TRMT61B / Fold change vs veh, TRMT61B / RFU, FUBP3 / Fold change vs veh, FUBP3 / RFU, TP53 / Fold change vs veh, TP53 / RFU, TNKS2 / Fold change vs veh, TNKS2 / RFU, ZFP14 / Fold change vs veh, ZFP14 / RFU, ACTR2 / Fold change vs veh, ACTR2 / RFU, PPP3R1 / Fold change vs veh, PPP3R1 / RFU, PIK3R1 / Fold change vs veh, PIK3R1 / RFU, HNRNPA1 / Fold change vs veh, HNRNPA1 / RFU, RNF170 / Fold change vs veh, RNF170 / RFU, ZNF28 / Fold change vs veh, ZNF28 / RFU, RNGTT / Fold change vs veh, RNGTT / RFU, OGT / Fold change vs veh, OGT / RFU, BRD1 / Fold change vs veh, BRD1 / RFU, MARS / Fold change vs veh, MARS / RFU, ZNF655 / Fold change vs veh, ZNF655 / RFU, FAHD1 / Fold change vs veh, FAHD1 / RFU, BDP1 / Fold change vs veh, BDP1 / RFU, LRRCC1 / Fold change vs veh, LRRCC1 / RFU, ARID1A / Fold change vs veh, ARID1A / RFU, ZNF146 / Fold change vs veh, ZNF146 / RFU, ZNF330 / Fold change vs veh, ZNF330 / RFU, GPN3 / Fold change vs veh, GPN3 / RFU, C9orf123 / Fold change vs veh, C9orf123 / RFU, N4BP2L2 / Fold change vs veh, N4BP2L2 / RFU, ARFIP1 / Fold change vs veh, ARFIP1 / RFU, FAM179B / Fold change vs veh, FAM179B / RFU, BCL10 / Fold change vs veh, BCL10 / RFU, UHRF1BP1L / Fold change vs veh, UHRF1BP1L / RFU, BET1 / Fold change vs veh, BET1 / RFU, CNOT2 / Fold change vs veh, CNOT2 / RFU, ZNF268 / Fold change vs veh, ZNF268 / Fold change vs veh, ZNF507 / RFU, DGCR2 / Fold change vs veh, DGCR2 / RFU, WDSUB1 / Fold change vs veh, WDSUB1 / Fold change vs veh, HSP90B1 /// MIR3652 / RFU, ADSS / Fold change vs veh, ADSS / RFU, GK / Fold change vs veh, GK / RFU, ZNF148 / Fold change vs veh, ZNF148 / RFU, TAF9 / Fold change vs veh, TAF9 / RFU, SLC1A5 / Fold change vs veh, SLC1A5 / RFU, SLMO2 / Fold change vs veh, SLMO2 / RFU, ABCC4 / Fold change vs veh, ABCC4 / RFU, LOC101060439 /// RAP1B / Fold change vs veh, LOC101060439 /// RAP1B / RFU, RFX7 / Fold change vs veh, RFX7 / RFU, GTPBP10 / Fold change vs veh, GTPBP10 / RFU, CNEP1R1 / Fold change vs veh, CNEP1R1 / RFU, BIVM-ERCC5 /// ERCC5 / Fold change vs veh, BIVM-ERCC5 /// ERCC5 / RFU, ILF3 / Fold change vs veh, ILF3 / RFU 11762660_at / Fold change /veh 11762660_at / RFU VCAN (11757783_s_at) / Fold change /veh VCAN (11757783_s_at) / RFU DDX43 (11728927_at) / Fold change /veh DDX43 (11728927_at) / RFU KRT8 (11758188_x_at) / Fold change /veh KRT8 (11758188_x_at) / RFU NKD1 (11759106_at) / Fold change /veh NKD1 (11759106_at) / RFU SRD5A1 (11742802_a_at) / Fold change /veh SRD5A1 (11742802_a_at) / RFU TPSAB1 /// TPSB2 (11721975_s_at) / Fold change /veh TPSAB1 /// TPSB2 (11721975_s_at) / RFU GSTM3 (11746129_a_at) / Fold change /veh GSTM3 (11746129_a_at) / RFU IL23R (11737362_x_at) / Fold change /veh IL23R (11737362_x_at) / RFU TMEM51 (11727254_a_at) / Fold change /veh TMEM51 (11727254_a_at) / RFU PIWIL2 (11732686_x_at) / Fold change /veh PIWIL2 (11732686_x_at) / RFU ORM1 (11744905_x_at) / Fold change /veh ORM1 (11744905_x_at) / RFU CCDC152 (11743942_at) / Fold change /veh CCDC152 (11743942_at) / RFU ECM1 (11717891_a_at) / Fold change /veh ECM1 (11717891_a_at) / RFU IL23R (11748794_a_at) / Fold change /veh IL23R (11748794_a_at) / RFU TNFAIP8L3 (11732012_x_at) / Fold change /veh TNFAIP8L3 (11732012_x_at) / RFU MBOAT4 (11741988_at) / Fold change /veh MBOAT4 (11741988_at) / RFU 11764193_at / Fold change /veh 11764193_at / RFU TMEM53 (11763286_at) / Fold change /veh TMEM53 (11763286_at) / RFU MAGEB2 (11727129_at) / Fold change /veh MAGEB2 (11727129_at) / RFU TMEM200A (11744735_a_at) / Fold change /veh TMEM200A (11744735_a_at) / RFU CCDC152 (11751479_a_at) / Fold change /veh CCDC152 (11751479_a_at) / RFU FAM211A (11726209_a_at) / Fold change /veh FAM211A (11726209_a_at) / RFU RGS16 (11746705_a_at) / Fold change /veh RGS16 (11746705_a_at) / RFU VCAN (11755009_s_at) / Fold change /veh VCAN (11755009_s_at) / RFU RHOB (11743442_s_at) / Fold change /veh RHOB (11743442_s_at) / RFU RGS16 (11720943_a_at) / Fold change /veh RGS16 (11720943_a_at) / RFU RGS16 (11720944_at) / Fold change /veh RGS16 (11720944_at) / RFU, VPS4B / Fold change vs veh, VPS4B / RFU, CREB1 / Fold change vs veh, CREB1 / RFU, DNAJC13 / Fold change vs veh, DNAJC13 / RFU, GNAQ / Fold change vs veh, GNAQ / RFU, CDK5R1 / Fold change vs veh, CDK5R1 / RFU, ZRANB3 / Fold change vs veh, ZRANB3 / RFU, CUL4A / Fold change vs veh, CUL4A / RFU, CCNY / Fold change vs veh, CCNY / RFU, UFL1 / Fold change vs veh, UFL1 / RFU, COG3 / Fold change vs veh, COG3 / RFU, DIAPH2 / Fold change vs veh, DIAPH2 / RFU, SKA2 / Fold change vs veh, SKA2 / RFU, AFF3 / Fold change vs veh, AFF3 / RFU, LMF1 / Fold change vs veh, LMF1 / RFU, IPO11 / Fold change vs veh, IPO11 / RFU, DFFB / Fold change vs veh, DFFB / RFU, FOXP1 / Fold change vs veh, FOXP1 / RFU, CARD8 / Fold change vs veh, CARD8 / RFU, STRN3 / Fold change vs veh, STRN3 / RFU, ADK / Fold change vs veh, ADK / RFU, RASSF2 / Fold change vs veh, RASSF2 / RFU, WIPF1 / Fold change vs veh, WIPF1 / RFU, LARP1B / Fold change vs veh, LARP1B / RFU, RASA1 / Fold change vs veh, RASA1 / RFU, RB1 / Fold change vs veh, RB1 / RFU, PPFIA1 / Fold change vs veh, PPFIA1 / RFU, MAT2A / Fold change vs veh, MAT2A / RFU, CCT5 / Fold change vs veh, CCT5 / RFU, WDR92 / Fold change vs veh, WDR92 / RFU, CUX1 / Fold change vs veh, CUX1 / RFU, TTC7A / Fold change vs veh, TTC7A / RFU, TMEM135 / Fold change vs veh, TMEM135 / RFU, DEPTOR / Fold change vs veh, DEPTOR / RFU, CPM / Fold change vs veh, CPM / RFU, DNAJB6 / Fold change vs veh, DNAJB6 / RFU, CACNA2D3 / Fold change vs veh, CACNA2D3 / RFU, DTX4 / Fold change vs veh, DTX4 / RFU, TFCP2 / Fold change vs veh, TFCP2 / RFU, GMCL1 /// GMCL1P1 / Fold change vs veh, GMCL1 /// GMCL1P1 / RFU, AEBP2 / Fold change vs veh, AEBP2 / RFU, SNHG1 /// SNORD22 /// SNORD25 /// SNORD26 /// SNORD27 /// SNORD28 /// SNORD29 /// SNORD31 / Fold change vs veh, SNHG1 /// SNORD22 /// SNORD25 /// SNORD26 /// SNORD27 /// SNORD28 /// SNORD29 /// SNORD31 / Fold change (Aza/veh), C12orf56 (ProbeSet 11735607_a_at) / Fold change (ACY-1035/veh), C12orf56 (ProbeSet 11735607_a_at) / Fold change (Aza/veh), FGFR1OP (ProbeSet 11751329_s_at) / Fold change (ACY-1035/veh), FGFR1OP (ProbeSet 11751329_s_at) / Fold change (Aza/veh), VPS36 (ProbeSet 11739960_a_at) / Fold change (ACY-1035/veh), VPS36 (ProbeSet 11739960_a_at) / RFU SYPL1 (11715823_x_at) / Fold change /veh SYPL1 (11715823_x_at) / RFU IGFBP7 (11715501_s_at) / Fold change /veh IGFBP7 (11715501_s_at) / RFU REEP3 (11722064_at) / Fold change /veh REEP3 (11722064_at) / RFU IGLL1 (11728026_x_at) / Fold change /veh IGLL1 (11728026_x_at): dose or concentration left out as unconfirmed
Conditions: MV-4-11 cells, 48 hours

## Nc1ncn([C@@H]2O[C@H](CO)[C@@H](O)[C@H]2O)c(=O)n1 [azacitidine]
  RFU FAM212B (11763350_a_at): 32.55 RFU
